Experimental data as given in US9630977B2, “Cephalosporin derivatives and pharmaceutical compositions thereof” (Legochem Biosciences, Inc., priority 2011, dated 2017).
Values after ≈ are worked out from the molar mass of the structure shown. Like-named read-outs stand apart in the source and are kept apart here.

Assays:
Assay in all cases: In vitro antibacterial activity test (broth microdilution)
Assay type in all cases: cell-based
[1] = tested on: K. pneumoniae 2011E; conditions: K. pneumoniae 2011E
Description: (§1) To evaluate antibacterial activity of each of the compounds of Examples 1 to 68, in vitro antibacterial activity test was performed.
(§2) The in vitro antibacterial activity was evaluated by measuring MIC90 (ug/mL) of each of the compounds of Examples 1 to 68, which is defined as the lowest concentration of an antibiotic that will inhibit the visible growth of 90% of microorganisms after incubation as compared with a control group to which the antibiotic is not treated. MIC90 values were measured by the broth microdilution method developed by the Clinical and Laboratory Standards Institute (CLSI) (see CLSI M7-A5, Methods for Dilution Antimicrobial Susceptibility Test for Bacteria that Grow Aerobically-Fifth Edition (2000): CLSI, Villanova, Pa.).
(§3) In vitro antibacterial activity was measured with respect to the following 19 clinical isolates: M. catarrhalis; P. aeruginosa (5 strains); K. pneumoniae (6 strains); A. baumannii (3 strains); E. coli (2 strains); A. calcoaceticus; and E. cloacae.
(§4) Test compounds each (the cephalosporin derivative compounds prepared in Examples 1 to 68) were dissolved in DMSO at the concentration of 10,240 ug/mL, were diluted by two fold with DMSO, and then were diluted by twenty fold with sterilized distilled water. The final concentration in the antibacterial activity test was in the range of […] to 128 ug/mL, and the final concentration of DMSO used as an adjuvant was 2.5% (V/V).

[2] = tested on: P. aeruginosa 43; conditions: P. aeruginosa 43
Description: as §1, §2, §3, §4

[3] = tested on: A. baumannii 46; conditions: A. baumannii 46
Description: as §1, §2, §3, §4

[4] = tested on: P. aeruginosa 6065Y
Description: as §1, §2, §3, §4

[5] = tested on: E. cloacae β19
Description: as §1, §2, §3, §4

[6] = tested on: P. aeruginosa 1912E
Description: as §1, §2, §3, §4

[7] = tested on: E. coli AG100
Description: as §1, §2, §3, §4

[8] = tested on: A. baumannii 52; conditions: A. baumannii 52
Description: as §1, §2, §3, §4

[9] = tested on: M. catarrhalis 2524; conditions: M. catarrhalis 2524
Description: as §1, §2, §3, §4

[10] = tested on: A. calcoaceticus ATCC15473; conditions: A. calcoaceticus ATCC15473
Description: as §1, §2, §3, §4

[11] = tested on: P. aeruginosa 40
Description: as §1, §2, §3, §4

[12] = tested on: E. coli β4
Description: as §1, §2, §3, §4

[13] = tested on: K. pneumoniae β14
Description: as §1, §2, §3, §4

[14] = tested on: A. baumannii 49; conditions: A. baumannii 49
Description: as §1, §2, §3, §4

[15] = tested on: P. aeruginosa 37
Description: as §1, §2, §3, §4

[16] = Klebsiella pneumoniae, 2011E, read-out: MIC90
[17] = Pseudomonas aeruginosa, read-out: MIC90
[18] = Acinetobacter baumannii, read-out: MIC90
[19] = Enterobacter cloacae, read-out: MIC90
[20] = Pseudomonas aeruginosa, 1912E, read-out: MIC90
[21] = Escherichia coli, AG100, E. coli AG100, read-out: MIC90
[22] = Moraxella catarrhalis, read-out: MIC90
[23] = Acinetobacter calcoaceticus, read-out: MIC90
[24] = Pseudomonas aeruginosa, 40, P. aeruginosa 40, read-out: MIC90
[25] = Escherichia coli, read-out: MIC90
[26] = Klebsiella pneumoniae, read-out: MIC90
[27] = Pseudomonas aeruginosa, 37, P. aeruginosa 37, read-out: MIC90

Structure (SMILES)	MIC90 [1, 16]	MIC90 [2, 17]	MIC90 [3, 18]	MIC90 [4, 17]	MIC90 [5, 19]	MIC90 [6, 20]	MIC90 [7, 21]	MIC90 [8, 18]	MIC90 [9, 22]	MIC90 [10, 23]	MIC90 [11, 24]	MIC90 [12, 25]	MIC90 [13, 26]	MIC90 [14, 18]	MIC90 [15, 27]	other results
CC(C)(O/N=C(\C(=O)N[C@@H]1C(=O)N2C(C(=O)[O-])=C(C[n+]3cnc(N)c(NCCCNC(=O)c4ccc(O)c(O)c4)c3)CSC12)c1csc(N)n1)C(=O)O (stereo partly drawn) [Compound 31]	8 µg/mL (≈ 10.4 µM)	1 µg/mL (≈ 1.3 µM)	4 µg/mL (≈ 5.19 µM)	4 µg/mL (≈ 5.19 µM)	16 µg/mL (≈ 20.8 µM)	1 µg/mL (≈ 1.3 µM)	0.25 µg/mL (≈ 0.324 µM)	64 µg/mL (≈ 83 µM)	1 µg/mL (≈ 1.3 µM)	1 µg/mL (≈ 1.3 µM)	2 µg/mL (≈ 2.59 µM)	8 µg/mL (≈ 10.4 µM)	32 µg/mL (≈ 41.5 µM)	32 µg/mL (≈ 41.5 µM)	1 µg/mL (≈ 1.3 µM)	–
CC(C)(O/N=C(\C(=O)N[C@@H]1C(=O)N2C(C(=O)[O-])=C(C[n+]3cnc(N)c(NC(=O)CNC(=O)c4ccc(O)c(O)c4)c3)CSC12)c1csc(N)n1)C(=O)O (stereo partly drawn) [Compound 32]	1 µg/mL (≈ 1.3 µM)	0.5 µg/mL (≈ 0.649 µM)	1 µg/mL (≈ 1.3 µM)	4 µg/mL (≈ 5.19 µM)	128 µg/mL (≈ 166 µM)	2 µg/mL (≈ 2.59 µM)	< 0.0625 µg/mL	16 µg/mL (≈ 20.8 µM)	0.25 µg/mL (≈ 0.324 µM)	0.5 µg/mL (≈ 0.649 µM)	4 µg/mL (≈ 5.19 µM)	8 µg/mL (≈ 10.4 µM)	64 µg/mL (≈ 83 µM)	32 µg/mL (≈ 41.5 µM)	4 µg/mL (≈ 5.19 µM)	–
CC(C)(O/N=C(\C(=O)N[C@@H]1C(=O)N2C(C(=O)[O-])=C(C[n+]3cnc(N)c(NCCNC(=O)c4ccc(O)c(C(=O)O)c4)c3)CSC12)c1csc(N)n1)C(=O)O (stereo partly drawn) [Compound 33]	16 µg/mL (≈ 20.4 µM)	> 128 µg/mL	128 µg/mL (≈ 163 µM)	128 µg/mL (≈ 163 µM)	> 128 µg/mL	64 µg/mL (≈ 81.6 µM)	16 µg/mL (≈ 20.4 µM)	> 128 µg/mL	2 µg/mL (≈ 2.55 µM)	128 µg/mL (≈ 163 µM)	128 µg/mL (≈ 163 µM)	64 µg/mL (≈ 81.6 µM)	128 µg/mL (≈ 163 µM)	> 128 µg/mL	> 128 µg/mL	–
C[C@H](O/N=C(\C(=O)N[C@@H]1C(=O)N2C(C(=O)[O-])=C(C[n+]3cnc(N)c(NCCNC(=O)c4ccc(O)c(O)c4)c3)CSC12)c1csc(N)n1)C(=O)O (stereo partly drawn) [Compound 34]	0.25 µg/mL (≈ 0.337 µM)	0.5 µg/mL (≈ 0.673 µM)	2 µg/mL (≈ 2.69 µM)	1 µg/mL (≈ 1.35 µM)	16 µg/mL (≈ 21.5 µM)	32 µg/mL (≈ 43.1 µM)	< 0.0625 µg/mL	128 µg/mL (≈ 172 µM)	1 µg/mL (≈ 1.35 µM)	0.5 µg/mL (≈ 0.673 µM)	0.5 µg/mL (≈ 0.673 µM)	1 µg/mL (≈ 1.35 µM)	128 µg/mL (≈ 172 µM)	128 µg/mL (≈ 172 µM)	2 µg/mL (≈ 2.69 µM)	–
C[C@H](O/N=C(\C(=O)N[C@@H]1C(=O)N2C(C(=O)[O-])=C(C[n+]3cnc(N)c(NCCNC(=O)c4ccc(O)c(O)c4)c3)CSC12)c1nc(N)sc1Cl)C(=O)O (stereo partly drawn) [Compound 35]	2 µg/mL (≈ 2.57 µM)	1 µg/mL (≈ 1.29 µM)	4 µg/mL (≈ 5.15 µM)	2 µg/mL (≈ 2.57 µM)	0.5 µg/mL (≈ 0.643 µM)	2 µg/mL (≈ 2.57 µM)	< 0.0625 µg/mL	2 µg/mL (≈ 2.57 µM)	< 0.0625 µg/mL	0.5 µg/mL (≈ 0.643 µM)	1 µg/mL (≈ 1.29 µM)	1 µg/mL (≈ 1.29 µM)	16 µg/mL (≈ 20.6 µM)	4 µg/mL (≈ 5.15 µM)	0.25 µg/mL (≈ 0.322 µM)	–
CC(C)(ON=C(C(=O)NC1C(=O)N2C(C(=O)[O-])=C(C[n+]3cnc(N)c(NCC=CC(=O)NO)c3)CSC12)c1csc(N)n1)C(=O)O (stereo not drawn) [Compound 47]	–	–	–	–	–	–	–	–	–	–	–	–	–	–	–	MIC90 [1]: 4 µg/mL (≈ 5.91 µM); MIC90 [2]: 128 µg/mL (≈ 189 µM); MIC90 [3]: 16 µg/mL (≈ 23.6 µM); MIC90 [4]: 128 µg/mL (≈ 189 µM); MIC90 [5]: 128 µg/mL (≈ 189 µM); MIC90 [6]: 8 µg/mL (≈ 11.8 µM); MIC90 ([7]; E. coli AG100): >128 µg/mL; MIC90 [8]: 128 µg/mL (≈ 189 µM); MIC90 [9]: 0.25 µg/mL (≈ 0.369 µM); MIC90 [10]: 8 µg/mL (≈ 11.8 µM); MIC90 ([11]; P. aeruginosa 40): 32 µg/mL (≈ 47.3 µM); MIC90 [12]: 16 µg/mL (≈ 23.6 µM); MIC90 [13]: 32 µg/mL (≈ 47.3 µM); MIC90 [14]: >128 µg/mL; MIC90 ([15]; P. aeruginosa 37): 64 µg/mL (≈ 94.6 µM)
